Measured values published in the NIST ThermoML archive (doi:10.1021/je9010486).

Experiment: cn = amount concentration of the nth substance listed, in mol/dm3
Conditions: 101 kPa, Liquid

OC[C@@H](O)[C@@H](O)CO [meso-1,2,3,4-butanetetrol] + O
Conditions	mass density, 293.15 K [kg/m3]	mass density, 303.15 K [kg/m3]	mass density, 313.15 K [kg/m3]	mass density, 323.15 K [kg/m3]	viscosity, 293.15 K [mPa·s]	viscosity, 303.15 K [mPa·s]	viscosity, 313.15 K [mPa·s]	viscosity, 323.15 K [mPa·s]
c1 = 0.1	1002.06	999.34	995.83	991.64	1.047	0.8541	0.6807	0.5663
c1 = 0.2	1005.36	1002.74	999.19	994.96	1.065	0.8706	0.7005	0.5849
c1 = 0.3	1009.37	1006.74	1003.09	998.81	1.088	0.8913	0.721	0.5986
c1 = 0.4	1012.65	1009.58	1006.3	1001.94	1.11	0.911	0.743	0.6171
c1 = 0.5	1016.16	1013.33	1009.63	1005.23	1.139	0.9366	0.7611	0.6351
c1 = 0.6	1019.38	1016.67	1012.43	1008.41	1.169	0.9634	0.7827	0.652
c1 = 0.7	1023.78	1020.8	1015.82	1012.27	1.213	1.002	0.8067	0.6734
c1 = 0.8	1026.82	1024.2	1019.15	1015.63	1.257	1.045	0.8339	0.6909
c1 = 0.9	1031.9	1027.8	1023.23	1019.38	1.306	1.087	0.861	0.7057
c1 = 1	1034.32	1031.18	1027.24	1022.64	1.338	1.137	0.8965	0.7251

OC[C@@H](O)[C@@H](O)[C@H](O)[C@@H](O)CO [D-sorbitol] + O
Conditions	mass density, 293.15 K [kg/m3]	mass density, 303.15 K [kg/m3]	mass density, 313.15 K [kg/m3]	mass density, 323.15 K [kg/m3]	viscosity, 293.15 K [mPa·s]	viscosity, 303.15 K [mPa·s]	viscosity, 313.15 K [mPa·s]	viscosity, 323.15 K [mPa·s]
c1 = 0.1	1004.76	1002.12	998.58	994.32	1.088	0.8619	0.6892	0.5711
c1 = 0.2	1011.23	1008.52	1004.89	1000.54	1.113	0.8842	0.7109	0.5983
c1 = 0.3	1017.64	1014.83	1011.14	1006.75	1.168	0.9329	0.7399	0.6199
c1 = 0.4	1024.07	1021.15	1017.37	1012.93	1.22	0.9794	0.7849	0.6596
c1 = 0.5	1029.89	1026.88	1023.01	1018.5	1.275	1.029	0.8127	0.6841
c1 = 0.6	1036.94	1033.82	1029.9	1025.33	1.33	1.079	0.8573	0.7037
c1 = 0.7	1043.32	1040.11	1036.08	1031.44	1.394	1.136	0.8885	0.7392
c1 = 0.8	1049.36	1046.04	1041.95	1037.25	1.466	1.202	0.931	0.7779
c1 = 0.9	1056.16	1052.72	1048.48	1043.79	1.531	1.26	0.9849	0.8178
c1 = 1	1062.52	1058.99	1054.72	1049.92	1.608	1.329	1.03	0.8541
